This is an account of results in US10993983B2, “Cyclic peptide epitopes and small-molecule mimics for inducing autophagy” (TRUSTEES OF TUFTS COLLEGE, priority 2016, dated 2021).

*1 amine or outer side, *2 acyl side, *3 side chain or, on linkers, in order; H or OH if unused. Where a SMILES comes first, the peptide text is derived from it. Bridges are numbered along the chain shown (N, C = ends). [ ]: non-standard residue; d: D form. The star is where a group is joined. NH(CH2CH2O)2(CH2)6Cl = ClCCCCCCOCCOCCN*; oXylylene = c1ccc(C[*:2])c(C[*:1])c1; Suc = O=C(CCC(=O)[*:2])[*:1]; Carboxymethyl = O=C(O)C*; Pent4ynoyl = C#CCCC(=O)*

The subject of data set [1] is HeLa-htt103Q cells. The data set is described as follows: Htt aggregate assay. The data set is classed as cell-based. The protocol: Along with proteasomal degradation, autophagy is the major pathway by which aggregated proteins are removed from the cytoplasm.
HeLa-htt103Q cells were cultured as described previously.^60 For the Htt103Q aggregate assay, cells were fixed with 2% PFA in PBS and CFP-positive aggregates […] were counted via fluorescence microscopy by an observer blinded to experimental condition.

In the next data set the test system is HeLa/GFP-LC3 cells. The data set is described as follows: GFP-LC3 puncta assay with and without bafilomycin A1. Type of data set: cell-based. Here is the method: (§1) HeLa/GFP-LC3 cells generated as previously shown,^10 treated with peptides for 3 hour as described above. […] After 6 h, mice were sacrificed and fixed by perfusion with 4% PFA in PBS. Tissues were fixed in 4% PFA overnight, 15% sucrose for 4 hours, and 30% sucrose overnight before frozen sections were prepared and used for fluorescence microscopy analysis as described.^16 GFP-LC3 puncta were quantified per 2500 μm^2 of tissue. Animal experiments were approved by the UTSW Institutional Animal Care Use Committee and performed in accordance with institutional guidelines.

The test system of another data set is HeLa cells. In words: Autophagy induction judged by p62 and LC3 immunoblots together. The data set is classed as cell-based. To be noted: HeLa cells; for concentration at which autophagy induction (p62 degradation and LC3 lipidation) was observed: immunoblot, 3 hour treatment. The method in brief:
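HeLa cells exposed to peptide (acetyl N-cap, C-terminal amide) for 3 h in acidified OPTI-MEM, then lysed and immunoblotted for p62 and LC3. Activity is the lowest concentration giving both p62 degradation and LC3-I to LC3-II conversion, scored semi-quantitatively.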
In general terms: A western blot detects proteins with antibodies after separation by electrophoresis.

Data set [2] relates to GFP-LC3 transgenic mice. The data set is described as follows: GFP-LC3 puncta in muscle tissue of GFP-LC3 transgenic mice. The data set is classed as in vivo. To be noted: for autophagy induction in vivo (GFP-LC3 puncta in muscle), result in words: i.p. injection, muscle tissue after 6 hours, Tat-11mer 15 mg/kg, D-(Tat-11mer) 15 mg/kg, DD5-o 15, 30 mg/kg. Here is the method:
To show whether Tat-11mer and DD5-o have similar in vivo activity, we tested their ability to induce autophagy in GFP-LC3 transgenic mice^59 as described.^10 Peptides were delivered via intraperitoneal injection, and after 6 hours, muscle tissue was collected. GFP-LC3 puncta were imaged in thin sections and counted by an observer blinded to experimental condition (FIG. 10, a,b).
as §1

Data set [3] has as its system HaLo-GFP-Mito+mCherry-DHFR HeLa cells. In words: Chloroalkane Penetration Assay (CAPA). The data set is classed as in vitro ADME. To be noted: flow cytometry. The source says:
FIGS. 19A-19C. Chloroalkane Penetration Assay quantitates relative cytosolic access of exogenously added DD5-o. 19A. Schematic showing the experimental procedure of CAPA, which uses a HaloEnzyme-GFP-expressing HeLa cell line. […] For CAPA, cells are pre-treated with vehicle or peptide, washed, and chased with HTag-TAMRA. Cells treated with cell-penetrant molecules have had their Haloenzyme blocked, thus preventing the HTag-TAMRA from covalently labeling the cells. 19B. Representative images of cells after CAPA, showing Haloenzyme-GFP fluorescence, Halotag-TAMRA fluorescence and the overlay of the two. […] 19C. […]
The Chloroalkane Penetration Assay is described in detail in U.S. Provisional Application No. 62/424,955, filed Nov. […] Following this incubation period, the amount of unreacted Haloenzyme was measured by chasing with a Haloligand-bearing dye (here, Htag-TAMRA). The relative amount of red cellular fluorescence after this chase was then quantified by flow cytometry. […] We evaluated CAPA with HTag-cTMP, a small molecule previously used as a tool for cytosolic protein localization.^71 As quantitated by flow cytometry, we observed inhibition of the HTag-TAMRA signal when cells were pre-incubated with HTag-cTMP, and this inhibition was dose-dependent with respect to amount of the HTag-cTMP used in the pre-incubation step. […]
A general note: A flow cytometer gives signals particle by particle.

The conditions of data set [4]: background; cited from earlier work.
Data set [5] concerns GFP-LC3 transgenic mice. To be noted: background; 20 mg/kg; cited from earlier work.
For data set [6], the system named is HeLa-htt103Q cells. To be noted: 20 μM; previously shown; cited from earlier work.

On to `C#CCCC(=O)N[C@H](C(=O)N[C@@H]1CSCc2ccccc2CSC[C@H](C(=O)N[C@@H](Cc2ccccc2)C(=O)N[C@@H](Cc2cnc[nH]2)C(=O)N[C@H](C(=O)N[C@@H](Cc2c[nH]c3ccccc23)C(=O)N[C@@H](Cc2cnc[nH]2)C(N)=O)[C@@H](C)CC)NC(=O)[C@H](C)NC(=O)[C@H](CC(N)=O)NC1=O)C(C)C` [DD5-o, (pa)-VcNAcFHIWH] (Pent4ynoyl-V[dC]NA[dC]FHIWH-NH2; linker 2-5 via oXylylene), for which the “percentage of cells with small htt103Q aggregates and number of small aggregates per cell” value in the data set with HeLa-htt103Q cells [1] (20 μM) is “significant decrease”. Besides, the “concentration at which autophagy was induced (GFP-LC3 puncta)” value in the data set on HeLa/GFP-LC3 cells (3 hours in serum-free media) was 10 µM. Also, in the data set with HeLa cells, the “concentration at which autophagy induction (p62 degradation and LC3 lipidation) was observed” value was 20 µM. The “autophagy induction, result in words” value with HeLa cells (p62 and LC3 immunoblots) was “nearly equal potency”. Also, the “autophagy induction in vivo (GFP-LC3 puncta in muscle), result in words” value in the data set with GFP-LC3 transgenic mice [2] is “induced autophagy at 15 and 30 mg/kg in a dose-dependent manner”.
With `CC[C@H](C)[C@H](NC(=O)[C@H](Cc1c[nH]cn1)NC(=O)[C@H](Cc1ccccc1)NC(=O)[C@@H](CSCC(=O)O)NC(=O)[C@H](C)NC(=O)[C@H](CC(N)=O)NC(=O)[C@@H](CSCC(=O)O)NC(=O)[C@@H](NC(=O)CCC(=O)NCCOCCOCCCCCCCl)C(C)C)C(=O)N[C@@H](Cc1c[nH]c2ccccc12)C(=O)N[C@@H](Cc1c[nH]cn1)C(N)=O` [HTag-DD5-neg, (HTag)-VcNAcFHIWH] ({NH(CH2CH2O)2(CH2)6Cl-Suc}-V[dC](Carboxymethyl)NA[dC](Carboxymethyl)FHIWH-NH2), in data set [3], the “inhibition of HTag-TAMRA fluorescence (cytosolic access), result in words” value is recorded as “little inhibition of HTag-TAMRA fluorescence”.
The same measure, in the same setting: for `CC[C@H](C)[C@H](NC(=O)[C@H](Cc1c[nH]cn1)NC(=O)[C@H](Cc1ccccc1)NC(=O)[C@H]1CSCc2ccccc2CSC[C@@H](NC(=O)[C@@H](NC(=O)CCC(=O)NCCOCCOCCCCCCCl)C(C)C)C(=O)N[C@@H](CC(N)=O)C(=O)N[C@@H](C)C(=O)N1)C(=O)N[C@@H](Cc1c[nH]c2ccccc12)C(=O)N[C@@H](Cc1c[nH]cn1)C(N)=O` [HTag-DD5-o, (HTag)-VcNAcFHIWH] ({NH(CH2CH2O)2(CH2)6Cl-Suc}-V[dC]NA[dC]FHIWH-NH2; linker 2-5 via oXylylene) the value was “dose-dependent suppression of the HTag-TAMRA signal”.
Turning to “Tat-11mer: eleven residues derived from Beclin 1, with a Gly-Gly linker and Tat sequence of the N-terminus (SEQ ID NO: 63) (Ac-YGRKKRRQRRRGGVWNATFHIWHD-NH2)”, the “percentage of cells with small htt103Q aggregates and number of small aggregates per cell” value with HeLa-htt103Q cells [1] (10 μM) was “significant decrease”. Moreover, the “fold more potent activation of autophagy (GFP-LC3 puncta)” value with HeLa/GFP-LC3 cells (activity at 10 μM similar to DD5-o at 40 μM) is “roughly 4 fold”. Further, the “concentration at which autophagy induction (p62 degradation and LC3 lipidation) was observed” value in the data set on HeLa cells amounted to 5 µM. In the data set with GFP-LC3 transgenic mice [2] (equimolar doses), the “in vivo potency relative to full-length Tat-Beclin 1” value is 2- to 4 fold. In addition, in the data set with GFP-LC3 transgenic mice [2], the “autophagy induction in vivo (GFP-LC3 puncta in muscle), result in words” value is given as “largest increase in autophagosome formation”.
For “YGRKKRRQRRRGGTNVFNATFEIWHDGEFGT [Tat-Beclin 1]”, in the data set on HeLa-htt103Q cells [1] (12.5 μM), the “activity in htt103Q aggregate assay” value is reported as “no activity”. The “concentration at which autophagy induction (p62 degradation and LC3 lipidation) was observed” value in the data set on HeLa cells was found to be 10 µM. Moreover, the “concentration at which autophagic flux is significantly increased in cell culture” value in data set [4] is 10 µM. The “autophagy induction in mice, result in words” value in the data set on GFP-LC3 transgenic mice [5] is reported as “induces autophagy when administered to mice at 20 mg/kg”. Further, the “number of small and large htt103Q aggregates” value with HeLa-htt103Q cells [6] is recorded as “decrease the number of small, but not large, htt103Q aggregates”.
